Reference: PMC9114799, “In vitro Evaluation of Isoniazid Derivatives as Potential Agents Against Drug-Resistant Tuberculosis” (Frontiers in Pharmacology, 2022)
≈ marks a conversion by molar mass, not a printed value. Read-outs that look alike come from different tables or passages of the source. Marks after values point to notes of the source that are not given here.

Key:
[1] = system: M. tuberculosis clinical strain katG (S315T); assay type: cell-based, Mycobacterium tuberculosis
[2] = system: M. tuberculosis clinical strain katG (S315T); settings: ref Martins et al., cited from earlier work

| Structure (SMILES) | increase of MIC going from wt to S315T [1] | MIC (katG S315T) ([2]; katG (S315T) Mtb, 2014) | activity in the mutated strain [1] | gain in efficacy against katG (S315T) strain compared with INH [1] [fold] | MIC (katG S315T) ([2]; Table S1, 2014 (per Table 2)) [g/mL] |
| --- | --- | --- | --- | --- | --- |
| NNC(=O)c1ccncc1 [INH, isonicotinoylhydrazide, reference compound] | approximately 150 fold | 43.8 ^a µM | – | – | – |
| O=C(N/N=C/c1ccc(Oc2ccccc2)cc1)c1ccncc1 [Compound N34, (E)-N'-(4-phenoxybenzylidene)isonicotinohydrazide] | ~20 fold | 18.9 ^a µM | still active | – | – |
| CCCCCCCCCC(=O)NNC(=O)c1ccncc1 [INH-C10, N′-decanoylisonicotinoylhydrazide] | ~20 fold | 6.9 ^a µM | – | 6 | 2.0 (≈ 6860 mM) |
| COC(=O)c1ccc(CNNC(=O)c2ccncc2)cc1 [Compound N33red, methyl 4-((2-isonicotinoylhydrazinyl)methyl)benzoate] | – | – | completely abolished | – | – |
| O=C(NNCc1ccc(Oc2ccccc2)cc1)c1ccncc1 [Compound N34red, N'-(4-phenoxybenzyl)isonicotinohydrazide] | – | – | completely abolished | – | – |
| COC(=O)c1ccc(/C=N/NC(=O)c2ccncc2)cc1 [Compound N33, methyl (E)-4-((2-isonicotinoylhydrazineylidene)methyl)benzoate] | ~20 fold | 21.2 ^a µM | still active | – | – |
